Reference: patent publication US20240293586A1, “RA[…] AND USE THEREOF” (OSAKA UNIVERSITY, priority 2021, published 2024)

How the values were obtained:
Format in all cases: in vivo, SCID mice
[1] = Blood biochemical tests and histopathological examination after the therapeutic test; conditions: 3 weeks after 0.5 MBq
Experimental: (§1) The mice in the Compound 3 administration group (0.5 MBq, n=3) and control group (CTL, n=2) of Experimental Example 1 were kept for 3 weeks thereafter, and changes in tumor size were measured. The tumor size was standardized by size at the time of drug administration, and the relative ratio (fold change) to subsequent tumor size was calculated. The tumor size in the control group increased over time, and it increased about seven times after three weeks. […] The mice were dissected and blood biochemical tests were performed.

[2] = test system: human prostate cancer cells (LNCaP); assay: Therapeutic test in human prostate cancer-transplanted mice with Compound 3 (tumor size); conditions: 0.5 MBq, FIG. 6
Experimental: (§2) SCID mice (9 weeks old, male, n=5) were subcutaneously transplanted with human prostate cancer cells (LNCaP, 0.5×10^7 cells/mouse), and then kept for one month. The mice were divided into Compound 3 administration group (n=3) and control group (n=2). For the Compound 3 administration group, Compound 3 (0.43±0.01 MBq) was administered via the tail vein. For the control group, physiological saline was administered. The mice in the Compound 3 administration group (n=3) were anesthetized with isoflurane inhalation at 3 and 24 hours after administration, and the planar images were taken using a SPECT camera (E-cam, Siemens) (matrix size: 256×256, pixel size 1.2×1.2 mm, collimator: LEAP, energy window: 79 keV±20%, image acquisition time 10 min or 20 min).
as §1

[3] = test system: human prostate cancer cells (LNCaP); assay: Therapeutic test in human prostate cancer-transplanted mice (Experimental Example 4); conditions: 0.4 MBq or 1 MBq, n=3; kept for 3 weeks; FIGS. 12 to 14
Experimental: SCID mice (9 weeks old, male, n=5) were subcutaneously transplanted with human prostate cancer cells (LNCaP, 0.5×10^7 cells/mouse), and then kept for one month. The tumor-transplanted mice were divided into Compound 3, 7 or 8 administration group (0.4 MBq or 1 MBq, n=3) and control group (CTL, n=2 or 3), and kept for 3 weeks thereafter, and changes in tumor size and body weight were measured.

[4] = test system: human prostate cancer cells (LNCaP); assay: Biodistribution test in human prostate cancer-transplanted mice or normal mice; conditions: approximately 0.1 MBq, 3 and 24 hours after administration; for accumulation in the tumors (radioactivity distribution % ID, % ID/g): tumor-transplanted mice, FIGS. 8, 10; for accumulation in the kidney (radioactivity distribution % ID, % ID/g): tumor-transplanted or normal mice, FIGS. 7 to 11
Experimental: SCID mice (9 weeks old, male, n=5) were subcutaneously transplanted with human prostate cancer cells (LNCaP, 0.5×10^7 cells/mouse), and then kept for one month. Compound 3, 4, 7 or 8 (approximately 0.1 MBq) was administered to the tumor-transplanted mice or normal mice, and the mice were dissection under isoflurane inhalation anesthesia at 3 and 24 hours after administration to collect various organs including blood, urine and tumors. The radioactivity distribution (% ID) and radioactivity distribution per 1 g of organ weight (% ID/g) were measured for each organ.

[5] = test system: human prostate cancer cells (LNCaP); assay: Imaging of human prostate cancer-transplanted mice (planar images, SPECT camera); conditions: FIG. 5; for accumulation at the tumor-transplanted site: 0.43±0.01 MBq via the tail vein
Experimental: as §2

[6] = planar imaging at 3 and 24 hours after administration

SMILES | histopathological examination of kidneys, salivary glands and thyroid glands [1] | renal function marker values (blood biochemical tests) versus control group [1] | tumor size, relative ratio (fold change) to size at the time of drug administration ([2]; after three weeks, n=3, control increased about seven times) | tumor size change ([2]; immediately after administration) | change in tumor size versus control group [3] | accumulation in the tumors (radioactivity distribution % ID, % ID/g) [4] | accumulation in the kidney (radioactivity distribution % ID, % ID/g) [4] | accumulation at the tumor-transplanted site ([5]; 3 hours after administration) | accumulation at the tumor-transplanted site ([5]; 24 hours after administration) | accumulation in the kidneys [5, 6] | nonspecific accumulation in other organs [5, 6]
O=C(O)CC[C@H](NC(=O)N[C@@H](CCCCNC(=O)[C@@H](Cc1ccc2ccccc2c1)NC(=O)c1ccc(CNC(=O)[C@@H](CCC(=O)O)NC(=O)[C@@H](CCC(=O)O)NC(=O)Cc2ccc([211At])cc2)cc1)C(=O)O)C(=O)O [Compound 3] | no particular abnormal findings | no significant differences | 0.27 times | tendency to shrink | tumor growth inhibition was observed | significantly accumulated in the tumors | accumulate physiologically in the kidney | accumulated at the tumor-transplanted site | the accumulation continued | physiological accumulation in the kidneys | no nonspecific accumulation in other organs was observed
O=C(O)CC[C@H](NC(=O)N[C@@H](CCCCNC(=O)[C@@H](Cc1ccc2ccccc2c1)NC(=O)c1ccc(CNC(=O)CCC(=O)NCCCC[C@H](NC(=O)CNC(=O)Cc2ccc([211At])cc2)C(=O)O)cc1)C(=O)O)C(=O)O [Compound 7] | – | – | – | – | tumor growth inhibition was observed | significantly accumulated in the tumors | accumulate physiologically in the kidney | – | – | – | –
O=C(O)CC[C@H](NC(=O)N[C@@H](CCCCNC(=O)[C@H](Cc1ccc2ccccc2c1)NC(=O)c1ccc(CNC(=O)[C@H](CCC(=O)O)NC(=O)[C@H](CCC(=O)O)NC(=O)Cc2ccc([211At])cc2)cc1)C(=O)O)C(=O)O [Compound 4] | – | – | – | – | – | – | accumulate physiologically in the kidney | – | – | – | –
O=C(O)CC[C@H](NC(=O)N[C@@H](CCCCNC(=O)[C@@H](Cc1ccc2ccccc2c1)NC(=O)c1ccc(CNC(=O)[C@@H](CCC(=O)O)NC(=O)[C@@H](CCC(=O)O)NC(=O)CCC(=O)NCCCC[C@H](NC(=O)CNC(=O)Cc2ccc([211At])cc2)C(=O)O)cc1)C(=O)O)C(=O)O [Compound 8] | – | – | – | – | tumor growth inhibition was observed | – | accumulate physiologically in the kidney | – | – | – | –
